Legend:
Assay type in all cases: in vivo
[1] = tested on: green foxtail (Setaria viridis, SETVI); assay: Pre-emerge test, greenhouse herbicide activity screening; settings: phytotoxicity rating 0-100, 14 days after application
Method in brief: (§1)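 Herbicidal damage is scored 0 (none) to 100 (complete plant death) two weeks after a simulated field spray. Rates span 15–1000 g ai/ha, delivered in acetone at 187 l/ha. For post-emergence treatments, plants have 2–3 leaves and the spray carries 0.25% v/v non-ionic surfactant.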

[2] = tested on: ivyleaf morningglory (Ipomoea hederacea, IPOHE); assay: as above; settings: phytotoxicity rating 0-100, 14 days after application
Method in brief: as §1

[3] = tested on: large crabgrass (Digitaria sanguinalis, DIGSA); assay: as above; settings: phytotoxicity rating 0-100, 14 days after application
Method in brief: as §1

[4] = tested on: johnsongrass (Sorghum halepense, SORHA); assay: as above; settings: phytotoxicity rating 0-100, 14 days after application
Method in brief: as §1

[5] = tested on: lambsquarters (Chenopodium album, CHEAL); assay: as above; settings: phytotoxicity rating 0-100, 14 days after application
Method in brief: as §1

[6] = tested on: sicklepod (Cassia obtusifolia, CASOB); assay: as above; settings: phytotoxicity rating 0-100, 14 days after application
Method in brief: as §1

[7] = tested on: barnyardgrass (Echinochloa crus-galli, ECHCG); assay: as above; settings: phytotoxicity rating 0-100, 14 days after application
Method in brief: as §1

[8] = tested on: velvetleaf (Abutilon theophrasti, ABUTH); assay: as above; settings: phytotoxicity rating 0-100, 14 days after application
Method in brief: as §1

[9] = tested on: common ragweed (Ambrosia artemisizfolia L., AMBEL); assay: as above; settings: phytotoxicity rating 0-100, 14 days after application
Method in brief: as §1

[10] = tested on: field corn (Zea mays L., var. Dekalb 535, CORN); assay: Post-emerge test, crop safety; settings: post-emerge, 14 days after application, rating scale 0-100
Method in brief: as §1

[11] = tested on: upland rice (Oryza sp., var. Tebonnet, RICE); assay: Post-emerge test, crop safety; settings: post-emerge, 14 days after application, rating scale 0-100
Method in brief: as §1

[12] = tested on: field corn (Zea mays L., var. Dekalb 535, CORN); assay: Pre-emerge test, crop safety; settings: crop damage rating 0-100, 14 days after application
Method in brief: as §1

[13] = tested on: upland rice (Oryza sp., var. Tebonnet, RICE); assay: Pre-emerge test, crop safety; settings: crop damage rating 0-100, 14 days after application
Method in brief: as §1

[14] = tested on: redroot pigweed (Amaranthus retroflexus, AMARE); assay: Pre-emerge test, greenhouse herbicide activity screening; settings: phytotoxicity rating 0-100, 14 days after application
Method in brief: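 Plants grown in 10 cm pots of sandy loam mix received acetone-dissolved compounds through a moving flat-fan nozzle. Doses ranged from 15 to 1000 g ai/ha. Pre-emerge pots were seeded one day earlier, post-emerge pots 8–21 days earlier. Fourteen days on, each pot was graded 0–100 for damage.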

[15] = tested on: redroot pigweed (Amaranthus retroflexus, AMARE); assay: Post-emerge test, greenhouse herbicide activity screening; settings: post-emerge, 14 days after application
Method in brief: (§2)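 Rating: 0–100 visual injury, 14 DAA. Application: acetone, 187 l/ha, 15–1000 g ai/ha, flat-fan track sprayer with nozzle 40–45 cm above soil or canopy. Post-emerge runs used 0.25% v/v surfactant on 2–3 leaf plants.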

[16] = tested on: green foxtail (Setaria viridis, SETVI); assay: as above; settings: post-emerge, 14 days after application, rating scale 0-100
Method in brief: as §2

[17] = tested on: ivyleaf morningglory (Ipomoea hederacea, IPOHE); assay: as above; settings: post-emerge, 14 days after application, rating scale 0-100
Method in brief: as §2

[18] = tested on: large crabgrass (Digitaria sanguinalis, DIGSA); assay: as above; settings: post-emerge, 14 days after application, rating scale 0-100
Method in brief: as §2

[19] = tested on: johnsongrass (Sorghum halepense, SORHA); assay: as above; settings: post-emerge, 14 days after application, rating scale 0-100
Method in brief: as §2

[20] = tested on: lambsquarters (Chenopodium album, CHEAL); assay: as above; settings: post-emerge, 14 days after application, rating scale 0-100
Method in brief: as §2

[21] = tested on: sicklepod (Cassia obtusifolia, CASOB); assay: as above; settings: post-emerge, 63 g ai/ha, 14 days after application, rating scale 0-100
Method in brief: as §2

[22] = tested on: barnyardgrass (Echinochloa crus-galli, ECHCG); assay: as above; settings: post-emerge, 14 days after application, rating scale 0-100
Method in brief: as §2

[23] = tested on: velvetleaf (Abutilon theophrasti, ABUTH); assay: as above; settings: post-emerge, 14 days after application, rating scale 0-100
Method in brief: as §2

[24] = tested on: common ragweed (Ambrosia artemisizfolia L., AMBEL); assay: as above; settings: post-emerge, 14 days after application, rating scale 0-100
Method in brief: as §2

## Cn1c(C(F)(F)F)cc(=O)n(-c2ccc(Cl)cc2NC(=O)C2CC2)c1=O [2-204]
[1]; 63 g ai/ha
  Pre-emerge Herbicidal Activity SETVI: 95
[1]; 250 g ai/ha
  Pre-emerge Herbicidal Activity SETVI: 99
[2]; 63 g ai/ha
  Pre-emerge Herbicidal Activity IPOHE: 50
[2]; 250 g ai/ha
  Pre-emerge Herbicidal Activity IPOHE: 100
[3]; 63 g ai/ha
  Pre-emerge Herbicidal Activity DIGSA: 35
[3]; 250 g ai/ha
  Pre-emerge Herbicidal Activity DIGSA: 100
[4]; 63 g ai/ha
  Pre-emerge Herbicidal Activity SORHA: 40
[4]; 250 g ai/ha
  Pre-emerge Herbicidal Activity SORHA: 80
[5]; 63 g ai/ha
  Pre-emerge Herbicidal Activity CHEAL: 70
[5]; 250 g ai/ha
  Pre-emerge Herbicidal Activity CHEAL: 100
[6]; 63 g ai/ha
  Pre-emerge Herbicidal Activity CASOB: 60
[6]; 250 g ai/ha
  Pre-emerge Herbicidal Activity CASOB: 75
[7]; 63 g ai/ha
  Pre-emerge Herbicidal Activity ECHCG: 20
[7]; 250 g ai/ha
  Pre-emerge Herbicidal Activity ECHCG: 70
[8]; 63 g ai/ha
  Pre-emerge Herbicidal Activity ABUTH: 99
[8]; 250 g ai/ha
  Pre-emerge Herbicidal Activity ABUTH: 100
[9]; 63 g ai/ha
  Pre-emerge Herbicidal Activity AMBEL: 50
[9]; 250 g ai/ha
  Pre-emerge Herbicidal Activity AMBEL: 85
[10]; 63 g ai/ha
  phytotoxicity rating CORN (crop damage): 5
[10]; 250 g ai/ha
  phytotoxicity rating CORN (crop damage): 10
[11]; 63 g ai/ha
  phytotoxicity rating RICE (crop damage): 0
[11]; 250 g ai/ha
  phytotoxicity rating RICE (crop damage): 30
[12]; 63 g ai/ha
  Pre-emerge Herbicidal Activity CORN: 50
[12]; 250 g ai/ha
  Pre-emerge Herbicidal Activity CORN: 70
[13]; 63 g ai/ha
  Pre-emerge Herbicidal Activity RICE: 0
[13]; 250 g ai/ha
  Pre-emerge Herbicidal Activity RICE: 30
[14]; 63 g ai/ha
  Pre-emerge Herbicidal Activity AMARE: 100
[14]; 250 g ai/ha
  Pre-emerge Herbicidal Activity AMARE: 100
[15]; 63 g ai/ha, rating scale 0-100 (0 no damage, 100 complete death)
  phytotoxicity rating AMARE: 50
[15]; 250 g ai/ha, rating scale 0-100
  phytotoxicity rating AMARE: 70
[16]; 63 g ai/ha
  phytotoxicity rating SETVI: 0
[16]; 250 g ai/ha
  phytotoxicity rating SETVI: 20
[17]; 63 g ai/ha
  phytotoxicity rating IPOHE: 30
[17]; 250 g ai/ha
  phytotoxicity rating IPOHE: 60
[18]; 63 g ai/ha
  phytotoxicity rating DIGSA: 0
[18]; 250 g ai/ha
  phytotoxicity rating DIGSA: 10
[19]; 63 g ai/ha
  phytotoxicity rating SORHA: 0
[19]; 250 g ai/ha
  phytotoxicity rating SORHA: 0
[20]; 63 g ai/ha
  phytotoxicity rating CHEAL: 20
[20]; 250 g ai/ha
  phytotoxicity rating CHEAL: 95
[21]
  phytotoxicity rating CASOB: 10
[22]; 63 g ai/ha
  phytotoxicity rating ECHCG: 0
[22]; 250 g ai/ha
  phytotoxicity rating ECHCG: 0
[23]; 63 g ai/ha
  phytotoxicity rating ABUTH: 40
[23]; 250 g ai/ha
  phytotoxicity rating ABUTH: 80
[24]; 63 g ai/ha
  phytotoxicity rating AMBEL: 10
[24]; 250 g ai/ha
  phytotoxicity rating AMBEL: 70

From patent publication US6355799B1, “Substituted benzene compounds, process for their preparation, and herbicidal and defoliant compositions containing them” (ISK Americas Incorporated, priority 1997, dated 2002)
